Measurements reported in US20240352066A1, “ANTIMICROBIAL COMPOUNDS AND THE METHOD OF USE” (priority 2021, published 2024).
In brackets after ≈: the same amount, converted by molar mass. Where a SMILES comes first, the peptide text is derived from it. [ ]: non-standard residue; d: D form. NCyclohexylmethylGly = O=C(O)CNCC1CCCCC1; N(tridecyl)Gly = CCCCCCCCCCCCCNCC(=O)O; Gly(N-2-aminoethyl) = NCCNCC(=O)O; Gly(N-cHex) = O=C(O)CNC1CCCCC1; Gly(N-cPent) = O=C(O)CNC1CCCC1; N(iPr)Gly = CC(C)NCC(=O)O; NPhGly = O=C(O)CNc1ccccc1; NHexGly = CCCCCCNCC(=O)O; Nlys = NCCCCNCC(=O)O

Columns and labels:
C. neoformans [1] = experiment: microbe, parasite or virus in culture; assay type: cell-based, Cryptococcus neoformans; details: for MIC: Cryptococcus neoformans, read-out: MIC (compound alone); for interpretation of combination with RMG8-8: FICi<0.5 synergistic, 0.5≤FICi≤4 indifferent, FICi>4 antagonist; for Combination MIC RMG8-8:Drug, RMG8-8 part: RMG8-8 concentration in combination with the named drug; for Combination MIC RMG8-8:Drug, Drug part: drug concentration in combination with RMG8-8; for FICi: named drug in combination with RMG8-8
Description: Cell solution was diluted into RPMI-MOPS (1:100) followed by another dilution into RPMI-MOPS (1:20). […] Plates were incubated for 72 hours at 35° C. MIC was determined as the lowest concentration of individual compound or combined compounds inhibiting pathogen growth. Fractional inhibitory concentration index (FICi) was determine using the following equation: FICi values were interpreted as follows: FICi<0.5 synergistic; 0.5≤FICi≤4 indifferent; FICi>4 antagonist (Johnson et al., Antimicrob. Agents Chemother. 48, 693-715 (2004)).

[2] = Mammalian cytotoxicity, MTT, HepG2; assay type: cell-based, human; details: human, HepG2 hepatocellular carcinoma cells
Description: (§1) Hepatocellular carcinoma (HepG2), mouse fibroblast (3T3), human lung (HPL1A), and human keratinocyte (HaCat) cells were cultured in Dulbecco modified eagle media (DMEM) containing 10% fetal bovine serum (FBS) and 1% penicillin, streptomycin, and glutamine (PSG) at 37° C. and 5% CO2. Cells were collected and adjusted to […] to 4×10^5 cells/mL in phenol-red free DMEM and plated (100 μL) 96 well plates. 2-fold serial dilutions of 10× peptoid (11.1 μL) were added to each well in triplicate. Water (vehicle) was used as a negative control. Plates were incubated at 37° C. in 5% CO2 for 72 hours. Thiazolyl blue tetrazolium bromide (MTT) was added to each well (5 mg/mL; 20 μL) and incubated for 3 hours. Media was removed, DMSO (100 μL) was added, and plates were incubated at 37° C. for 10 minutes. Plates were read on a SpectraMax M5 plate reader (Abs. 570 nm). The concentration of compound resulting in a 50% reduction in growth compared to control (toxicity dose 50%; TD50) was determined using GraFit. This procedure was repeated three times on separate days.
(§2) Cytotoxicity against HepG2 hepatocellular carcinoma cells was done as previously described (Green et al. ACS infectious diseases, (2022); Corson et al. ACS medicinal chemistry letters 7 12, 1139-1144 (2016)). HepG2 cells were maintained in culture in T-75 flasks using Dulbecco's Modified Eagle's Media (DMEM) with phenol red pH indicator and supplemented with 10% fetal bovine serum (FBS) and 1% penicillin, streptomycin, and glutamine (PSG). The cells were incubated at 37° C. and 5% CO2 in a humidified incubator until desired confluency was achieved. The media was removed from the flask, and the cells were washed 1× with 10 mL of phosphate-buffered saline (PBS; 11.8 mM phosphate, 140.4 mM NaCl; pH 7.4) which was then discarded. To remove the adhered cells from the flask, 2 mL of trypsin was added, and the cells were incubated for 10 minutes. To quench the trypsin, 8 mL of phenol red-free DMEM with 10% FBS and 1% PGS was added, and the cell solution was transferred to a 15 mL conical tube. After the cells were pelleted by centrifugation at 1000 rpm for 5 minutes, the supernatant was poured off and cells resuspended in the volume of phenol red-free media needed for the assay. Cell concentration was determined by counting with a hemocytometer, and the solution was diluted with media until a concentration of 1×10^5 cells/mL was achieved. A 100 μL aliquot of cell solution was added to each well of a 96-well plate, apart from the 3 wells used for a media control. Cells were incubated for 2-3 hours at 37° C. and 5% CO2 until cells were adherent.
(§3) Compound stocks of 20 mg/mL were used to prepare 2-fold serial dilutions of each compound in sterile water, giving final concentrations of 200, 100, 50, 25, 12.5, 6.25, 3.13 and 1.56 μg/mL. 11.1 μL of prepared compound solutions was added to the appropriate wells in triplicate. A negative vehicle control of sterile water, as well as the aforementioned media control, were used. The plates were incubated for 72 hours at 37° C. and 5% CO2. After incubation, 20 μL of 5 mg/mL 3-(4,5-dimethylthiazol-2-yl)-2,5-diphenyltetrazolium bromide (MTT) in water was added to each well. The plate was incubated for 3 hours at 37° C. and 5% CO2. Media was removed from each well using a sterile glass Pasteur pipette. 100 μL of DMSO was added to each well and incubated for 15 minutes at 37° C. Absorbance was read at 570 nm using a SpectraMax M5 Plate Reader. This MTT assay was performed in biological duplicate unless discrepant results were observed. If this was the case, the assay was performed in biological triplicate for further verification. The reported value is the average of biological replicates with standard deviation.

[3] = Percent acetonitrile at elution during RP-HPLC purification (hydrophobicity); assay type: physicochemical; details: percent acetonitrile at the time of elution from HPLC
Source text: All RMG8-8 derivatives were synthesized via the solid-phase submonomer synthesis method on polystyrene Rink Amide resin (Zuckermann et al. Journal of the American Chemical Society 114, 10646-10647 (1992)). The amines used during synthesis and the peptoid shorthand notations for each monomer are provided in Table 7 and Table 8, respectively. Compounds were purified to greater than 95% by RP-HPLC and compound identity was confirmed by ESI-TOF MS (Table 9). The calculated distribution coefficient at pH 7.4 (c Log D7.4) (via Chemaxon. MarvinSketch 19.17.0, 2019) and the percent acetonitrile at the time of elution during HPLC purification were recorded and serve as measures of hydrophobicity (Table 10). Higher values for c Log D7.4 and percent acetonitrile are indicators of increased compound hydrophobicity. With antimicrobial peptoids, hydrophobicity is directly related to both antimicrobial activity and cytotoxicity (Andreev et al. Biochimica et biophysica acta. Biomembranes 1860 6, 1414-1423 (2018); Bolt et al. Med chem comm 8, 886-896 (2017); Frederiksen et al. Molecules 24, (2019)). The ideal balance of these parameters generally must be determined experimentally. To measure antifungal activity, the minimum inhibitory concentration (MIC), defined as the concentration of compound required to inhibit 90% of fungal growth, was determined against C. neoformans using the broth microdilution method. Mammalian cytotoxicity was evaluated through a cell metabolic activity assay with HepG2 liver carcinoma cells, and select, potentially promising compounds were tested for unwanted hemolytic activity against human red blood cells.
Peptoids were purified via Reversed-Phase High-Performance Liquid Chromatography (RP-HPLC) using a Varian Prepstar SD-1. A gradient of 0-100% water to acetonitrile containing 0.05% TFA made up the mobile phase, and a Supelco Ascentis C18 column (5 μm; 25 cm×21.2 mm; Sigma-Aldrich 581347-U) was used as the stationary phase. Peaks in the chromatogram above 0.1 AU were collected and analyzed via mass spectrometry. The peak product with the desired peptoid was dried down in vacuo and lyophilized overnight. Peptoids were then reconstituted in sterile […] deionized water to create compound stocks of 20 mg/mL.

C. neoformans [4] = assay type: cell-based, Cryptococcus neoformans; details: 72 h
Description: The minimum inhibitory concentration (MIC) of peptoids against fungal pathogens C. albicans and C. neoformans was determined following CLSI guidelines (CLSI. Reference method for broth dilution antifungal susceptibility testing of yeasts; approved standard-third edition; CLSI document M27-A3. (Clinical and Laboratory Standards Institute, 2008). […] This inoculant was diluted 1:100 into RPMI-MOPS and then further diluted 1:20 into RPMI-MOPS. 198 μL of inoculant was seeded into each well of a 96 well black-walled plate. 2-fold serial dilutions of 100× peptoid solutions were prepared in water and 2 μL of peptoid were added to each well in triplicate. […] MIC was defined as the lowest concentration of compound preventing fungal growth. This assay was repeated 3 times on separate days with each compound. […] The addition of 0.1 mL cell solution to 9.9 mL of RPMI-MOPS produced a 1:100 cell solution. After vortexing, 0.5 mL of the […] was added to 9.5 mL RPMI-MOPS to produce a 1:20 cell solution. 198 μL of the 1:20 solution was added to the wells of an opaque 96-well plate, apart from the wells designated for the medial control. […] Amphotericin B was used as a positive control, and sterile water was used for the vehicle control. The plates were incubated for 72 hours at 35° C. After incubation, the concentration of compound resulting in no visual growth was recorded as the MIC. All assays performed in biological triplicate on different days.

[5] = test system: HepG2 hepatocellular carcinoma cells; experiment: Mammalian cytotoxicity, MTT, HepG2; assay type: cell-based, human
Description: as §1, §2, §3

[6] = checkerboard, 72 hours at 35° C.

Row | SMILES | MIC (C. neoformans [1]; [6]) | interpretation of combination with RMG8-8 (C. neoformans [1]) | Combination MIC RMG8-8:Drug, RMG8-8 part (C. neoformans [1]) | Combination MIC RMG8-8:Drug, Drug part (C. neoformans [1]) | FICi (C. neoformans [1]) | CC50 at 72 h [2] | % ACN [3] | C. neoformans MIC (C. neoformans [4]) | HepG2 TD50 [5] | MIC (compound alone) (C. neoformans [1]; [6])
1 | OC(Cn1cncn1)(Cn1cncn1)c1ccc(F)cc1F [Fluconazole] | 2 µg/mL | indifferent | 1.56 µg/mL | 2 µg/mL | 2 |  |  |  |  | 
2 | CCCCCCCCCCCCCNCC(=O)N(CCCCN)CC(=O)N(CC(=O)N(CC(=O)N(CCN)CC(N)=O)C1CCCCC1)C1CCCCC1 [Compound 3] (H-[N(tridecyl)Gly][Nlys][Gly(N-cHex)][Gly(N-cHex)][Gly(N-2-aminoethyl)]-NH2) |  |  |  |  |  | 105 ± 3.8 µg/mL (≈ 138 µM) | 69.3% | 3.13 µg/mL |  | 
3 | CCCCCCCCCCCCCNCC(=O)N(CC(=O)N(CCCCN)CC(=O)N(CCN)CC(=O)N(CC(N)=O)C(C)C)C(C)C [Compound 8] (H-[N(tridecyl)Gly][N(iPr)Gly][Nlys][Gly(N-2-aminoethyl)][N(iPr)Gly]-NH2) |  |  |  |  |  | > 200 µg/mL | 66.7% | 25 µg/mL | greater than 200 μg/mL | 
4 | CCCCCCCCCCCCCNCC(=O)N(CC(=O)N(CCCCN)CC(=O)N(CCN)CC(=O)N(CC(N)=O)CC1CCCO1)CC1CCCO1 (stereo not drawn) [Compound 13] |  |  |  |  |  | > 200 µg/mL | 67.3% | 12.5 to 25 µg/mL | greater than 200 μg/mL | 
5 | CCCCCCCCCCCCCNCC(=O)N(CC(=O)N(CCCCN)CC(=O)N(CCN)CC(=O)N(CC(N)=O)C1CCCC1)C1CCCC1 [Compound 11] (H-[N(tridecyl)Gly][Gly(N-cPent)][Nlys][Gly(N-2-aminoethyl)][Gly(N-cPent)]-NH2) |  |  |  |  |  | > 200 µg/mL | 68.1% | 6.25 µg/mL | greater than 200 μg/mL | 
6 | CCCCCCCCCCCCCNCC(=O)N(CC(=O)N(CCCC[N+](C)(C)C)CC(=O)N(CC[N+](C)(C)C)CC(=O)N(CC(N)=O)C1CCCCC1)C1CCCCC1 [Compound 1] |  |  |  |  |  | > 200 µg/mL |  | 12.5 µg/mL | > 200 µg/mL | 
7 | Nc1[nH]c(=O)ncc1F [Flucytosine] | 2 µg/mL | indifferent | 1.56 µg/mL | 2 µg/mL | 2 |  |  |  |  | 
8 | C[C@@H]1[C@H](O)[C@@H](C)/C=C/C=C/C=C/C=C/C=C/C=C/C=C/[C@H](O[C@@H]2O[C@H](C)[C@@H](O)[C@H](N)[C@@H]2O)C[C@@H]2O[C@](O)(C[C@@H](O)C[C@@H](O)[C@H](O)CC[C@@H](O)C[C@@H](O)CC(=O)O[C@H]1C)C[C@H](O)[C@H]2C(=O)O [Amphotericin B] |  | mild additive effect | 0.8 µg/mL | 0.06 µg/mL | 0.75 |  |  |  |  | 0.25 µg/mL
9 | CCCCCCCCCCCCCNCC(=O)N(CCCCCC)CC(=O)N(CCCCN)CC(=O)N(CCN)CC(=O)N(CCCCCC)CC(N)=O [Compound 10] (H-[N(tridecyl)Gly][NHexGly][Nlys][Gly(N-2-aminoethyl)][NHexGly]-NH2) |  |  |  |  |  | 61 ± 9 µg/mL (≈ 79.5 µM) | 73.3% | 1.56 to 3.13 µg/mL |  | 
10 | CCCCCCCCCCCCCNCC(=O)N(CC(=O)N(CCCCN)CC(=O)N(CCN)CC(=O)N(CC(N)=O)c1ccccc1)c1ccccc1 [Compound 14] (H-[N(tridecyl)Gly][NPhGly][Nlys][Gly(N-2-aminoethyl)][NPhGly]-NH2) |  |  |  |  |  | 81 ± 25 µg/mL (≈ 108 µM) | 67.7% | 1.56 to 3.13 µg/mL |  | 
11 | CCCCCCCCCCCCCNCC(=O)N(CC(=O)N(CCCCN)CC(=O)N(CCN)CC(=O)N(CC(N)=O)CC1CCCCC1)CC1CCCCC1 [Compound 12] (H-[N(tridecyl)Gly][NCyclohexylmethylGly][Nlys][Gly(N-2-aminoethyl)][NCyclohexylmethylGly]-NH2) |  |  |  |  |  | 62 ± 3 µg/mL (≈ 78.4 µM) | 71.4% | 1.56 to 3.13 µg/mL |  | 
